From paper PMC9273884, “Responsive Fluorescent Coumarin–Cinnamic Acid Conjugates for α-Glucosidase Detection” (Frontiers in Chemistry, 2022) come the findings set out here.

Data set [1] concerns the target T1, α-Glucosidase from Saccharomyces cerevisiae (EC 3.2.1.20) (Saccharomyces cerevisiae, UniProt P53341).
T1 construct: purchased Sigma-Aldrich
In words: α-Glucosidase inhibition efficiency test (PNPG substrate, absorbance at 405 nm). Type of data set: biochemical. Particulars: 0.1 U/mL enzyme, 1 mmol/L PNPG, 37°C, triplicate mean; read-out: IC50 against α-glucosidase.
Experimental: All chemicals and solvents were obtained from commercial suppliers without further purification. α-Glucosidase from Saccharomyces cerevisiae (EC 3.2.1.20) was purchased from Sigma-Aldrich. p-Nitrophenyl-α-D-galactopyranoside (PNPG) was obtained from Abcam.
Stock solutions of testing compounds were prepared in DMSO. Enzyme solution of α-glucosidase (2 U/mL) was prepared in 0.1 M PBS buffer. Nitrophenol-α-D-glucoside (PNPG) was dissolved in 0.1 M PBS buffer (pH 6.8) to obtain the substrate solution (4 mM). In total, 10 μL of α-glucosidase (final concentration 0.1 U/mL), 130 μL of PBS buffer, and 10 μL of the sample solution were added into 96-well plates in succession and incubated at 37°C for 10 min. Then 50 μL of substrate solution (PNPG final concentration 1 mmol/L) was added, followed by incubation at 37°C for another 30 min. The enzymatic activity was quantified by measuring the absorbance of the reaction mixture at 405 nm using a multimodel reader. The inhibition rate was calculated using the following equation: Inhibition rate (%) = [(A1−A0)/A0] × 100%, where A1 and A0 are the absorbance values of testing samples and blank control, respectively. The IC50 value was obtained from a plot of the inhibition rate versus the sample concentration curve. The assays were carried out in triplicate and the mean values were given.

Data set [2] is described as follows: pH-dependent emission (pKa by Henderson-Hasselbalch equation). The format is physicochemical. The following applies: from emission spectra in PBS buffer pH 3.0 to 8.0, room temperature. The procedure: The emission spectra of the probes in PBS buffer (pH from 3.0 to 8.0) were determined at room temperature. The pKa value was calculated using the Henderson–Hosslbalch equation ([Finikova et al., 2003]): pH = pKa + lg ([A]/[HA]).

For data set [3], the target named is T2, α-glucosidase (Saccharomyces cerevisiae, UniProt P53341).
T2 construct: purchased Sigma-Aldrich
Put plainly: Fluorescence competitive binding assay against α-glucosidase/LD02 complex. The procedure: (§1) All chemicals and solvents were obtained from commercial suppliers without further purification. α-Glucosidase from Saccharomyces cerevisiae (EC 3.2.1.20) was purchased from Sigma-Aldrich. p-Nitrophenyl-α-D-[…] (PNPG) was obtained from Abcam. Nuclear magnetic resonance (NMR) spectra of new compounds were recorded in DMSO-d 6 using a Bruker Advance 500 MHz spectrometer. High-resolution mass spectrometry (HRMS) was measured on a Thermo Fisher Scientific Q Exactive Orbitrap mass spectrometer. UV–Vis absorption spectra were measured using an Hitachi 3,900 absorption spectrophotometer (Tokyo, Japan). Fluorescence spectra were recorded using an Edinburgh FLS1000 fluorescence spectrophotometer (Edinburgh, UK).
The binding complexes of α-glucosidase with LD02 were prepared by adding α-glucosidase (final concentration = 3.5 μM) to the solution of LD02 (10 μM) in 10 mM PBS buffer (pH = 7.4). The dissociation constant of a competitor to α-glucosidase can be determined by titrating it against binding complexes of α-glucosidase with LD02, and can be calculated according to the Cheng–Prusoff equation ([Cheng and Prusoff, 1973]).

The target of data set [4] is T2, α-glucosidase. In words: Fluorescence titration of the probes with α-glucosidase. The format is binding. The following applies: for increase of maximum emission intensity on addition of α-glucosidase: 3.5 μM α-glucosidase, PBS buffer. The procedure: as §1
α-Glucosidase protein was titrated to the solution of the testing probe (LD01 or LD02) (10 μM), and the fluorescence emission spectra were recorded from 380 to 700 nm under excitation of 365 nm. The binding constants of Ka were obtained from a double logarithm regression curve ([Wei et al., 2010]): 1g[(I−Io)/Io] = 1gKa + n 1g[G],
where I and I0 are the current and initial fluorescence intensity, respectively, K a is the binding constant, n is the number of binding sites for each α-glucosidase, and [G] is the total concentration of the α-glucosidase protein.

In data set [5] the test system is glucose oxidase (GOD), polyphenol oxidase (TKY), pepsin (PEP), Cys, GSH, Lys, Ca2+, Cu2+, Fe3+, Mg2+, Zn2+. In words: Binding selectivity of LD02: emission in the presence of potential competitors. The following applies: 10 μM LD02; enzymes 3.5 μM, small molecules and ions 1 mM; 10 mM PBS pH 7.4. On the procedure: To verify the binding specificity of LD02 toward α-glucosidase, emission spectra of LD02 in the presence of α-glucosidase or various potential competitors such as other enzymes (including glucose oxidase (GOD), polyphenol oxidase (TKY), and pepsin (PEP)), and small molecules of interest (including Cys, GSH, Lys, Ca^2+, Cu^2+, Fe^3+, Mg^2+, and Zn^2+), were collected in 10 mM PBS buffer (pH = 7.4) at room temperature.
FIGURE 5 (A) Fluorescence spectra of LD02 (10 μM) in the presence of various species: α-glucosidase (α-Glu) (3.5 μM), GOD (3.5 μM), TKY (3.5 μM), PEP (3.5 μM), Cys (1 mM), GSH (1 mM), Lys (1 mM), Ca^2+ (1 mM), Cu^2+ (1 mM), Fe^3+ (1 mM), Mg^2+ (1 mM), and Zn^2+ (1 mM) in PBS buffer. (B) The plot of (I-I0)/I0 in A (λex = 365 nm, λem = 457 nm).

A word on the IC50: it is the midpoint of a concentration-inhibition curve. What is called pKa is the negative logarithm of the acid dissociation constant. Higher therefore signals a group that holds its proton tightly. The Kd is the equilibrium constant for the complex coming apart. A lower Kd goes with higher affinity.

Entries after “also recorded” stand apart in the source; their conditions may differ.

T2 sequence (P53341 whole entry): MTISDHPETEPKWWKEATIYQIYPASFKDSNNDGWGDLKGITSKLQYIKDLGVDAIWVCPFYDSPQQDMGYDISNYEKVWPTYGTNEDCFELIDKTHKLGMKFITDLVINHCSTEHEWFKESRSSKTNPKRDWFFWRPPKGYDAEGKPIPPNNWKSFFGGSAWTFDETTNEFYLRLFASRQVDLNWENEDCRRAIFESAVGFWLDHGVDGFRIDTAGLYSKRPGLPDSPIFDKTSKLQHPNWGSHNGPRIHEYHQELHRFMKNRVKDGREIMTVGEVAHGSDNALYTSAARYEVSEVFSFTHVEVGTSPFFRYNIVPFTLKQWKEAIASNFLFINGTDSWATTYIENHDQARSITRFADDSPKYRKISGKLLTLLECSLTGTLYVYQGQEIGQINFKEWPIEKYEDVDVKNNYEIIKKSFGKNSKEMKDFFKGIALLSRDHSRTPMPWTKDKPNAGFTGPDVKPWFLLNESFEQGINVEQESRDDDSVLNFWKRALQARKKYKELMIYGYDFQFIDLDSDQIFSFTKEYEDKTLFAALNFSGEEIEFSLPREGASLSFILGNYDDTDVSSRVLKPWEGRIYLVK
T1 sequence (P53341 whole entry): as above

As to `CCN(CC)c1ccc2cc(/C(C)=N/OC(=O)/C=C/c3ccc(Br)cc3)c(=O)oc2c1` [LD01], the IC50 in data set [1] amounted to 4.6 ± 0.5 µM. Besides, in data set [2], the pKa was found to be 4.2. Moreover, binding at α-glucosidase [3] was put at a Kd of 6.31 µM. Also, the “increase of maximum emission intensity on addition of α-glucosidase” value at α-glucosidase [4] (10 μM probe) is “no obvious emission changes; also recorded: does not have such changes”.
For the molecule `C/C(=N\OC(=O)/C=C/c1ccc(N(C)C)cc1)c1cc2ccccc2oc1=O` [LD02], the IC50 in data set [1] turned out to be 32.5 ± 0.8 µM. The pKa in data set [2] is 4.6. Moreover, the Kd at α-glucosidase [4] was 158 µM. Besides, the “increase of maximum emission intensity on addition of α-glucosidase” value at α-glucosidase [4] (10 μM probe) is recorded as 2.7 times. Besides, the “binding ratio (n, number of binding sites) to α-glucosidase” value on α-glucosidase [4] (double logarithm regression, 10 μM probe, PBS) was “approximately 0.5”. The “effect of potential competitors on emission band and intensity (selectivity toward α-glucosidase)” value in data set [5] is “no obvious effect”.
